Experimental data taken from patent US10189873B2, “Compositions and methods for inhibiting “stimulator of interferon gene”-dependent signalling” (ADURO BIOTECH, INC., priority 2013, dated 2019).

Target: T1, human STING (Homo sapiens, UniProt Q86WV6, G230A/H232R/R293Q/R71H)
T1 construct: THP1-Blue™ ISG cells (a human monocyte cell line transfected with an IRF-inducible secreted embryonic alkaline phosphatase reporter gene); host or cells: THP1-Blue ISG cells (human monocyte cell line)
Assay: Inhibition of ML RR-CDA-mediated induction of type I IFN in THP1-Blue ISG reporter cells (QUANTI-Blue, A655)
Type: cell-based
Description: To evaluate if the antagonist 2′-O-propargyl-cyclic-[A(2′,5′)pA(3′,5′)p] (ML-propargyl-CDA) can inhibit STING-dependent induction of type I interferon induction by Rp, Rp dithio cyclic [A(2′,5′)pA(3′,5′)p] (ML RR-CDA) in human cells, 4×10^5 THP1-Blue™ ISG cells (a human monocyte cell line transfected with an IRF-inducible secreted embryonic alkaline phosphatase reporter gene (Invivogen) which express alkaline phosphatase under the control of a promoter comprised of five IFN-stimulated response elements) were incubated with 50 μM of Rp, Rp dithio cyclic [A(2′,5′)pA(3′,5′)p] (ML RR-CDA), 10 μM or 50 μM of the antagonist 2′-O-propargyl-cyclic-[A(2′,5′)pA(3′,5′)p] (ML-propargyl-CDA), both 50 μM Rp, Rp dithio cyclic [A(2′,5′)pA(3′,5′)p] (ML RR-CDA) and 10 μM or 50 μM 2′-O-propargyl-cyclic-[A(2′,5′)pA(3′,5′)p] (ML-propargyl-CDA), or 50 μM Rp, Rp dithio cyclic [A(2′,5′)pA(3′,5′)p] (ML RR-CDA) after a 30 min pre-incubation with 10 μM 2′-O-propargyl-cyclic-[A(2′,5′)pA(3′,5′)p] (ML-propargyl-CDA). After 30 minutes, cells were washed and plated in 96-well dish in RPMI media containing 10% FBS, and incubated at 37° C. with 5% CO2. Cell culture supernatants from each sample were collected after 16 hr incubation, and 20 μL of the cell culture supernatants was added to 180 μL QUANTI-Blue reagent (Invivogen) and incubated for 5 minutes to evaluate type I interferon protein levels. Readings at Absorbance 655 nm were measured with a Versa Max kinetic spectrophotometer ([…]).

T1 sequence (Q86WV6 whole entry R71H/G230A/H232R/R293Q): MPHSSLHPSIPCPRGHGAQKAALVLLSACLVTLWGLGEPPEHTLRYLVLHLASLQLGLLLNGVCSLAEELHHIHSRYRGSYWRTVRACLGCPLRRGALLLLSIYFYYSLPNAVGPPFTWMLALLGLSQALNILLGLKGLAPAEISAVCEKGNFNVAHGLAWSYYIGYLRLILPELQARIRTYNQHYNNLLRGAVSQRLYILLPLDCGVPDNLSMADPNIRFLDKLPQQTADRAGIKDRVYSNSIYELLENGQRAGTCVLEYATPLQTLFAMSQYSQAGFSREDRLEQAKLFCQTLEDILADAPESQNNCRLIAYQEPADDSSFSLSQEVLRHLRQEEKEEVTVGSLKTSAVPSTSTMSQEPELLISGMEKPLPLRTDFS

inhibition of induction of type I IFN by ML RR-CDA (THP1-Blue ISG cells, 10 μM or 50 μM antagonist added simultaneously with 50 μM ML RR-CDA, FIG. 7A): significantly inhibited
inhibition of induction of type I interferon by ML RR-CDA (THP1-Blue ISG cells, 30 min pre-incubation with 10 μM antagonist, then 50 μM ML RR-CDA, FIG. 7B): inhibits
functional character at human STING (concluded from reduction of ML RR-CDA-induced type I IFN production in THP1-Blue ISG cells): antagonist of human STING
SMILES: C#CCO[C@@H]1[C@@H]2OP(=O)(O)OC[C@H]3O[C@@H](n4cnc5c(N)ncnc54)[C@H](OP(=O)(O)OC[C@H]2O[C@H]1n1cnc2c(N)ncnc21)[C@@H]3O [ML-propargyl-CDA, 2′-O-propargyl-cyclic-A(2′,5′)pA(3′,5′)p]
